Test results reported in PubChem BioAssay (NCI).
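Where inhibition never reached the appropriate level, the endpoint shown equals the highest concentration tested. Otherwise, values were interpolated linearly from a five-concentration, 48-hour dose response in 96-well plates. At the TGI there is no net growth.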

Tests used:
Assay in all cases: NCI anticancer screen, dose series, 48 h
786-0 renal = tested on: 786-0 renal
A549 NSCLC = tested on: A549 NSCLC
ACHN renal = tested on: ACHN renal
BT-549 breast = tested on: BT-549 breast
CAKI-1 renal = tested on: CAKI-1 renal
CCRF-CEM leukemia = tested on: CCRF-CEM leukemia
COLO 205 colon = tested on: COLO 205 colon
DU-145 prostate = tested on: DU-145 prostate
EKVX NSCLC = tested on: EKVX NSCLC
HCC-2998 colon = tested on: HCC-2998 colon
HCT-116 colon = tested on: HCT-116 colon
HCT-15 colon = tested on: HCT-15 colon
HL-60(TB) leukemia = tested on: HL-60(TB) leukemia
HOP-62 NSCLC = tested on: HOP-62 NSCLC
HOP-92 NSCLC = tested on: HOP-92 NSCLC
HS 578T breast = tested on: HS 578T breast
HT29 colon = tested on: HT29 colon
IGROV1 ovarian = tested on: IGROV1 ovarian
K-562 leukemia = tested on: K-562 leukemia
LOX IMVI melanoma = tested on: LOX IMVI melanoma
M14 melanoma = tested on: M14 melanoma
MALME-3M melanoma = tested on: MALME-3M melanoma
MCF7 breast = tested on: MCF7 breast
MDA-MB-231 breast = tested on: MDA-MB-231 breast
MDA-MB-435 = tested on: MDA-MB-435
MDA-N = tested on: MDA-N
MOLT-4 leukemia = tested on: MOLT-4 leukemia
NCI-H226 lung = tested on: NCI-H226 lung
NCI-H23 lung = tested on: NCI-H23 lung
NCI-H460 lung = tested on: NCI-H460 lung
NCI/ADR-RES ovarian = tested on: NCI/ADR-RES ovarian
OVCAR-3 ovarian = tested on: OVCAR-3 ovarian
OVCAR-4 ovarian = tested on: OVCAR-4 ovarian
OVCAR-5 ovarian = tested on: OVCAR-5 ovarian
OVCAR-8 ovarian = tested on: OVCAR-8 ovarian
PC-3 prostate = tested on: PC-3 prostate
RPMI-8226 leukemia = tested on: RPMI-8226 leukemia
RXF 393 renal = tested on: RXF 393 renal
SF-268 CNS = tested on: SF-268 CNS
SF-295 CNS = tested on: SF-295 CNS
SF-539 CNS = tested on: SF-539 CNS
SK-MEL-2 melanoma = tested on: SK-MEL-2 melanoma
SK-MEL-28 melanoma = tested on: SK-MEL-28 melanoma
SK-MEL-5 melanoma = tested on: SK-MEL-5 melanoma
SN12C renal = tested on: SN12C renal
SNB-19 CNS = tested on: SNB-19 CNS
SNB-75 CNS = tested on: SNB-75 CNS
SR leukemia = tested on: SR leukemia
SW-620 colon = tested on: SW-620 colon
T-47D breast = tested on: T-47D breast
TK-10 renal = tested on: TK-10 renal
UACC-257 melanoma = tested on: UACC-257 melanoma
A498 renal = tested on: A498 renal
KM12 colon = tested on: KM12 colon
NCI-H522 lung = tested on: NCI-H522 lung
SK-OV-3 ovarian = tested on: SK-OV-3 ovarian
U251 CNS = tested on: U251 CNS
UACC-62 melanoma = tested on: UACC-62 melanoma
UO-31 renal = tested on: UO-31 renal

Molecule `CC(=O)N1C(OC(C)C)CC(C)N1c1ccccc1` (configuration not stated) has a TGI (786-0 renal) of over 10 µM, a TGI (A549 NSCLC) of over 10 µM and a TGI (ACHN renal) of over 10 µM. It also gave a TGI (BT-549 breast) of over 10 µM, a TGI (CAKI-1 renal) of over 10 µM and a TGI (CCRF-CEM leukemia) of over 10 µM. For the same molecule, the TGI (COLO 205 colon) was over 10 µM, the TGI (DU-145 prostate) was over 10 µM and the TGI (EKVX NSCLC) was over 10 µM. The TGI (HCC-2998 colon) was over 10 µM, the TGI (HCT-116 colon) was over 10 µM and the TGI (HCT-15 colon) was over 10 µM. For the same molecule, the TGI (HL-60(TB) leukemia) was over 10 µM, the TGI (HOP-62 NSCLC) was over 10 µM and the TGI (HOP-92 NSCLC) was over 10 µM. The TGI (HS 578T breast) was over 10 µM, the TGI (HT29 colon) was over 10 µM and the TGI (IGROV1 ovarian) was over 10 µM. It also gave a TGI (K-562 leukemia) of over 10 µM, a TGI (LOX IMVI melanoma) of over 10 µM and a TGI (M14 melanoma) of over 10 µM. The TGI (MALME-3M melanoma) was over 10 µM, the TGI (MCF7 breast) was over 10 µM and the TGI (MDA-MB-231 breast) was over 10 µM. The TGI (MDA-MB-435) was over 10 µM, the TGI (MDA-N) was over 10 µM and the TGI (MOLT-4 leukemia) was over 10 µM. For the same molecule, the TGI (NCI-H226 lung) was over 10 µM, the TGI (NCI-H23 lung) was over 10 µM and the TGI (NCI-H460 lung) was over 10 µM. For the same molecule, the TGI (NCI/ADR-RES ovarian) was over 10 µM, the TGI (OVCAR-3 ovarian) was over 10 µM and the TGI (OVCAR-4 ovarian) was over 10 µM. For the same molecule, the TGI (OVCAR-5 ovarian) was over 10 µM, the TGI (OVCAR-8 ovarian) was over 10 µM and the TGI (PC-3 prostate) was over 10 µM. It also gave a TGI (RPMI-8226 leukemia) of over 10 µM, a TGI (RXF 393 renal) of over 10 µM and a TGI (SF-268 CNS) of over 10 µM. It also gave a TGI (SF-295 CNS) of over 10 µM, a TGI (SF-539 CNS) of over 10 µM and a TGI (SK-MEL-2 melanoma) of over 10 µM. The TGI (SK-MEL-28 melanoma) was over 10 µM, the TGI (SK-MEL-5 melanoma) was over 10 µM and the TGI (SN12C renal) was over 10 µM. The TGI (SNB-19 CNS) was over 10 µM, the TGI (SNB-75 CNS) was over 10 µM and the TGI (SR leukemia) was over 10 µM. It also gave a TGI (SW-620 colon) of over 10 µM, a TGI (T-47D breast) of over 10 µM and a TGI (TK-10 renal) of over 10 µM. The TGI (UACC-257 melanoma) was over 10 µM.
With `Cc1ccc(Cc2n[nH]c(=O)n2Nc2ccccc2)cc1` the TGI (786-0 renal) was over 100 µM, the TGI (A498 renal) was over 100 µM and the TGI (A549 NSCLC) was over 100 µM. It also gave a TGI (ACHN renal) of over 100 µM, a TGI (BT-549 breast) of over 100 µM and a TGI (CAKI-1 renal) of over 100 µM. The TGI (CCRF-CEM leukemia) was over 100 µM, the TGI (COLO 205 colon) was over 100 µM and the TGI (DU-145 prostate) was over 100 µM. The TGI (EKVX NSCLC) was over 100 µM, the TGI (HCC-2998 colon) was over 100 µM and the TGI (HCT-116 colon) was over 100 µM. For the same molecule, the TGI (HCT-15 colon) was over 100 µM, the TGI (HL-60(TB) leukemia) was over 100 µM and the TGI (HOP-62 NSCLC) was over 100 µM. It also gave a TGI (HOP-92 NSCLC) of over 100 µM, a TGI (HS 578T breast) of over 100 µM and a TGI (HT29 colon) of over 100 µM. For the same molecule, the TGI (IGROV1 ovarian) was over 100 µM, the TGI (K-562 leukemia) was over 100 µM and the TGI (KM12 colon) was over 100 µM. The TGI (LOX IMVI melanoma) was over 100 µM, the TGI (MALME-3M melanoma) was over 100 µM and the TGI (MCF7 breast) was over 100 µM. The TGI (MDA-MB-231 breast) was over 100 µM, the TGI (MDA-MB-435) was over 100 µM and the TGI (MDA-N) was over 100 µM. The TGI (MOLT-4 leukemia) was over 100 µM, the TGI (NCI-H226 lung) was over 100 µM and the TGI (NCI-H23 lung) was over 100 µM. It also gave a TGI (NCI-H460 lung) of over 100 µM, a TGI (NCI-H522 lung) of over 100 µM and a TGI (NCI/ADR-RES ovarian) of over 100 µM. The TGI (OVCAR-3 ovarian) was over 100 µM, the TGI (OVCAR-4 ovarian) was over 100 µM and the TGI (OVCAR-5 ovarian) was over 100 µM. It also gave a TGI (OVCAR-8 ovarian) of over 100 µM, a TGI (RPMI-8226 leukemia) of over 100 µM and a TGI (SF-268 CNS) of over 100 µM. The TGI (SF-295 CNS) was over 100 µM, the TGI (SF-539 CNS) was over 100 µM and the TGI (SK-MEL-2 melanoma) was over 100 µM. The TGI (SK-MEL-28 melanoma) was over 100 µM, the TGI (SK-MEL-5 melanoma) was over 100 µM and the TGI (SK-OV-3 ovarian) was over 100 µM. It also gave a TGI (SN12C renal) of over 100 µM, a TGI (SNB-19 CNS) of over 100 µM and a TGI (SR leukemia) of over 100 µM. For the same molecule, the TGI (SW-620 colon) was over 100 µM, the TGI (T-47D breast) was over 100 µM and the TGI (TK-10 renal) was over 100 µM. The TGI (U251 CNS) was over 100 µM, the TGI (UACC-257 melanoma) was over 100 µM and the TGI (UACC-62 melanoma) was over 100 µM. For the same molecule, the TGI (UO-31 renal) was over 100 µM.
